For orientation: IC50 means the midpoint of a concentration-inhibition curve.

The first assay deals with UWB1 cells. In words: cells. Particulars: read-out: IC50 (μM) UWB1 cells.
On to `COC(=O)C[C@H]1[C@]2(C)C3=C(C)[C@@H](c4ccc(O[Si](C)(C)C(C)(C)C)cc4)C[C@H]3O[C@@H]2[C@@H]2OC(=O)[C@]3(C)C=CC(=O)[C@@]1(C)[C@@H]23` (stereo in doubt) [S-120], for which the half-maximal inhibitory concentration (IC50) was found to be 0.165 µM.

As to `C=C1[C@H](O[Si](C)(C)C)[C@H](O[Si](C)(C)C)[C@@H]2[C@](C)(C(=O)C=C[C@@]2(C)C(=O)OC)[C@H]1CC(=O)OC` [S-16-a], the 50% inhibitory concentration (IC50) was > 10 µM.

For `C=C1[C@H](O[C@H]2C[C@@H](c3ccoc3)C(C)=C2I)[C@@H]2OC(=O)[C@]3(C)C=CC(=O)[C@@](C)([C@@H]23)[C@H]1CC(=O)OC` [S-27], the IC50 is 0.415 µM.

For the molecule `CC[Si](CC)(CC)O[C@H]1C(=O)[C@H](CC(=O)OC)[C@@]2(C)C=CC(=O)[C@@]3(C)C(=O)O[C@@H]1[C@@H]32` [S-38], the half-inhibitory concentration (IC50) is > 10 µM.

With `COC(=O)C[C@H]1[C@@H]2CC3=C(C)CC[C@@H]3O[C@@H]2[C@@H]2OC(=O)[C@]3(C)C=CC(=O)[C@@]1(C)[C@@H]23` [S-98], the concentration for half-maximal inhibition (IC50) came out at 0.83 µM.

For `COC(=O)C[C@H]1[C@]2(C)C3=C(C)[C@H](c4cccc(O[Si](C)(C)C(C)(C)C)c4)C[C@H]3O[C@@H]2[C@@H]2OC(=O)[C@]3(C)C=CC(=O)[C@@]1(C)[C@@H]23` [S-112], the IC50 came to 0.219 µM.

As to `COC(=O)C[C@H]1[C@@H]2CC3=C(C)[C@H](c4cccc(O[Si](C)(C)C(C)(C)C)c4)C[C@@H]3O[C@@H]2[C@@H]2OC(=O)[C@]3(C)C=CC(=O)[C@@]1(C)[C@@H]23` [S-113], the half-maximal inhibitory concentration (IC50) worked out at 0.216 µM.

Staying with this assay, now noted: read-out: IC50 (μM) UWB1 cells, UWB1 cell viability.
Consider `C=C1[C@H](O)[C@H](O)[C@@H]2[C@](C)(C(=O)C=C[C@@]2(C)C(=O)OC)[C@H]1CC(=O)OC` [S-16-b], for which the 50% inhibitory concentration (IC50) is > 10 µM.

Consider `C=C1[C@H](O)[C@@H]2OC(=O)[C@]3(C)C=CC(=O)[C@@](C)([C@@H]23)[C@H]1CC(=O)OC` [S-16], for which the half-maximal inhibitory concentration (IC50) was > 10 µM.

With `C=C1[C@H](O[C@H]2C=C(C)[C@H](c3ccoc3)C2)[C@@H]2OC(=O)[C@]3(C)C=CC(=O)[C@@](C)([C@@H]23)[C@H]1CC(=O)OC` [S-26-1], the concentration for half-maximal inhibition (IC50) was determined as 0.265 µM.

In the case of `COC(=O)C[C@H]1[C@]2(C)C3=C(C)[C@H](c4ccoc4Br)C[C@H]3O[C@@H]2[C@@H]2OC(=O)[C@]3(C)C=CC(=O)[C@@]1(C)[C@@H]23` [S-41], the half-maximal inhibitory concentration (IC50) was determined as 0.465 µM.

As to `COC(=O)C[C@H]1[C@]2(C)C3=C(C)[C@H](c4ccoc4-c4cccc5c4ccn5C)C[C@H]3O[C@@H]2[C@@H]2OC(=O)[C@]3(C)C=CC(=O)[C@@]1(C)[C@@H]23` [S-42], the IC50 turned out to be 0.144 µM.

Consider `COC(=O)C[C@H]1[C@]2(C)C3=C(C)[C@H](c4ccoc4-c4ccc(OC)nc4)C[C@H]3O[C@@H]2[C@@H]2OC(=O)[C@]3(C)C=CC(=O)[C@@]1(C)[C@@H]23` [S-43], for which the IC50 was determined as 0.208 µM.

Consider `COC(=O)C[C@H]1[C@]2(C)C3=C(C)[C@H](c4ccoc4-c4ccc5c(c4)OCO5)C[C@H]3O[C@@H]2[C@@H]2OC(=O)[C@]3(C)C=CC(=O)[C@@]1(C)[C@@H]23` [S-44], for which the half-maximal inhibitory concentration (IC50) stood at 0.383 µM.

`COC(=O)C[C@H]1[C@]2(C)C3=C(C)[C@H](c4ccoc4-c4ccc(C=O)cc4)C[C@H]3O[C@@H]2[C@@H]2OC(=O)[C@]3(C)C=CC(=O)[C@@]1(C)[C@@H]23` [S-45]: the IC50 is 0.251 µM.

Regarding `COC(=O)C[C@H]1[C@]2(C)C3=C(C)[C@H](c4ccoc4-c4ccoc4)C[C@H]3O[C@@H]2[C@@H]2OC(=O)[C@]3(C)C=CC(=O)[C@@]1(C)[C@@H]23` [S-47], the IC50 was 0.296 µM.

With `COC(=O)C[C@H]1[C@]2(C)C3=C(C)[C@H](c4ccoc4-c4ccc(OC)cc4C)C[C@H]3O[C@@H]2[C@@H]2OC(=O)[C@]3(C)C=CC(=O)[C@@]1(C)[C@@H]23` [S-48], the IC50 came out at 0.212 µM.

As to `COC(=O)C[C@H]1[C@]2(C)C3=C(C)[C@H](c4ccoc4-c4ccc([N+](=O)[O-])cc4)C[C@H]3O[C@@H]2[C@@H]2OC(=O)[C@]3(C)C=CC(=O)[C@@]1(C)[C@@H]23` [S-49], the IC50 worked out at 0.194 µM.

As to `COC(=O)C[C@H]1[C@]2(C)C3=C(C)[C@H](C4=CC(=O)OC4OC(C)=O)C[C@H]3O[C@@H]2[C@@H]2OC(=O)[C@]3(C)C=CC(=O)[C@@]1(C)[C@@H]23` (stereo partly shown) [S-50], the concentration for half-maximal inhibition (IC50) was 1.04 µM.

Consider `COC(=O)C[C@H]1[C@]2(C)C3=C(C)[C@H](c4ccoc4-c4ccc(C(=O)NC(C)(C)C)cc4)C[C@H]3O[C@@H]2[C@@H]2OC(=O)[C@]3(C)C=CC(=O)[C@@]1(C)[C@@H]23` [S-52], for which the IC50 is 0.199 µM.

As for `CCC(C)NC(=O)c1ccc(-c2occc2[C@@H]2C[C@H]3O[C@@H]4[C@@H]5OC(=O)[C@]6(C)C=CC(=O)[C@](C)([C@@H](CC(=O)OC)[C@]4(C)C3=C2C)[C@@H]56)cc1` (stereo partly shown) [S-53], the IC50 worked out at 0.17 µM.

As for `C=C1[C@H](O[C@H]2C=C(C)[C@H](c3ccoc3)C2)[C@@H]2OC(=O)[C@]3(C)C=CC(=O)[C@@](C)([C@@H]23)[C@H]1CC(=O)OC` [S-54], the IC50 amounted to 0.265 µM.

For `COC(=O)C[C@H]1[C@]2(C)C3=C(C)[C@H](c4ccoc4)C[C@H]3O[C@@H]2[C@@H]2OC(=O)[C@]3(C)C=C[C@@H](O)[C@@]1(C)[C@@H]23` [S-55], the half-maximal inhibitory concentration (IC50) is > 10 µM.

In the case of `COC(=O)C[C@H]1[C@]2(C)C3=C(C)[C@H](c4ccoc4-c4ccccc4OC)C[C@H]3O[C@@H]2[C@H](O)[C@H]2C(C)=CCC(=O)[C@]12C` [S-56], the 50% inhibitory concentration (IC50) was > 10 µM.

`COC(=O)C[C@H]1[C@@H]2CC3=C(C)[C@H](c4ccoc4)C[C@@H]3O[C@@H]2[C@@H]2OC(=O)[C@]3(C)C=CC(=O)[C@@]1(C)[C@@H]23` [S-57]: the half-maximal inhibitory concentration (IC50) worked out at 0.591 µM.

On to `COC(=O)C[C@H]1[C@]2(C)C3=C(C)[C@H](c4ccoc4-c4ccc(C(=O)O)cc4)C[C@H]3O[C@@H]2[C@@H]2OC(=O)[C@]3(C)C=CC(=O)[C@@]1(C)[C@@H]23` [S-58], for which the IC50 amounted to 1.79 µM.

On to `COC(=O)C[C@H]1[C@]2(C)C3=C(C)[C@H](c4ccoc4-c4ccc(C(=O)OC)cc4)C[C@H]3O[C@@H]2[C@@H]2OC(=O)[C@]3(C)C=CC(=O)[C@@]1(C)[C@@H]23` [S-59], for which the IC50 amounted to 0.203 µM.

On to `COC(=O)C[C@H]1[C@]2(C)C3=C(C)[C@H](c4ccoc4)C[C@H]3O[C@@H]2[C@@H]2OC(=O)[C@]3(C)CCC(=O)[C@@]1(C)[C@@H]23` [S-60, 2,3-dihydronimbolide], for which the half-inhibitory concentration (IC50) was > 10 µM.

As to `COC(=O)C[C@H]1[C@]2(C)C3=C(C)[C@H](c4ccoc4)C[C@H]3O[C@@H]2[C@H](O)[C@H]2C(C)=CCC(=O)[C@]12C` [S-61, 6-deacetylnimbinene], the half-inhibitory concentration (IC50) is > 10 µM.

`COC(=O)C[C@H]1[C@]2(C)C3=C(C)[C@H](c4ccoc4)C[C@H]3O[C@@H]2[C@H](OC(C)=O)[C@H]2C(C)=CCC(=O)[C@]12C` [S-62, nimbinene]: the IC50 was > 10 µM.

As to `COC(=O)C[C@H]1[C@]2(C)C3=C(C)[C@H](c4ccoc4)C[C@H]3O[C@@H]2[C@H](O)[C@@H]2[C@]1(C)C(=O)C=C[C@@]2(C)C(=O)OC` [S-63, 6-deacetylnimbin], the half-inhibitory concentration (IC50) was > 10 µM.

Take `COC(=O)C[C@H]1[C@]2(C)C3=C(C)[C@H](c4ccoc4)C[C@H]3O[C@@H]2[C@H](OC(C)=O)[C@@H]2[C@]1(C)C(=O)C=C[C@@]2(C)C(=O)OC` [S-64, nimbin]: the half-inhibitory concentration (IC50) was > 10 µM.

Take `COC(=O)C[C@@H]1[C@@]2(C)C(=O)C=C[C@@]3(C)C(=O)O[C@@H]([C@H]4O[C@H]5CC(c6ccoc6)=C(C)[C@]56C[C@@]416)[C@H]23` [S-65]: the IC50 is > 10 µM.

In the case of `COC(=O)C[C@H]1[C@]2(C)C3=C(C)CC[C@H]3O[C@@H]2[C@@H]2OC(=O)[C@]3(C)C=CC(=O)[C@@]1(C)[C@@H]23` [S-97], the IC50 was 1.45 µM.

On to `COC(=O)C[C@H]1[C@@H]2CC3=C(C)[C@@H](c4ccoc4)C[C@@H]3O[C@@H]2[C@@H]2OC(=O)[C@]3(C)C=CC(=O)[C@@]1(C)[C@@H]23` [S-99], for which the IC50 was 0.88 µM.

`COC(=O)C[C@H]1[C@]2(C)C3=C(C)[C@H](c4ccccc4)C[C@H]3O[C@@H]2[C@@H]2OC(=O)[C@]3(C)C=CC(=O)[C@@]1(C)[C@@H]23` [S-101]: the 50% inhibitory concentration (IC50) was 0.3 µM.

With `COC(=O)C[C@H]1[C@@H]2CC3=C(C)[C@H](c4ccccc4)C[C@@H]3O[C@@H]2[C@@H]2OC(=O)[C@]3(C)C=CC(=O)[C@@]1(C)[C@@H]23` [S-102], the half-inhibitory concentration (IC50) stood at 0.17 µM.

Consider `COC(=O)C[C@H]1[C@@H]2CC3=C(C)[C@@H](c4ccccc4)C[C@@H]3O[C@@H]2[C@@H]2OC(=O)[C@]3(C)C=CC(=O)[C@@]1(C)[C@@H]23` [S-103], for which the IC50 was 0.16 µM.

For `COC(=O)C[C@H]1[C@]2(C)C3=C(C)[C@H](C4CCCCC4)C[C@H]3O[C@@H]2[C@@H]2OC(=O)[C@]3(C)C=CC(=O)[C@@]1(C)[C@@H]23` [S-104], the IC50 stood at 0.21 µM.

Turning to `COC(=O)C[C@H]1[C@@H]2CC3=C(C)[C@H](C4CCCCC4)C[C@@H]3O[C@@H]2[C@@H]2OC(=O)[C@]3(C)C=CC(=O)[C@@]1(C)[C@@H]23` [S-105], the IC50 came to 0.2 µM.

As for `COC(=O)C[C@H]1[C@@H]2CC3=C(C)[C@@H](C4CCCCC4)C[C@@H]3O[C@@H]2[C@@H]2OC(=O)[C@]3(C)C=CC(=O)[C@@]1(C)[C@@H]23` [S-106], the IC50 stood at 0.16 µM.

As for `COC(=O)C[C@H]1[C@]2(C)C3=C(C)[C@H](c4ccc(OC)cc4)C[C@H]3O[C@@H]2[C@@H]2OC(=O)[C@]3(C)C=CC(=O)[C@@]1(C)[C@@H]23` [S-107], the IC50 is 0.27 µM.

With `COC(=O)C[C@H]1[C@@H]2CC3=C(C)[C@H](c4ccc(OC)cc4)C[C@@H]3O[C@@H]2[C@@H]2OC(=O)[C@]3(C)C=CC(=O)[C@@]1(C)[C@@H]23` [S-108], the 50% inhibitory concentration (IC50) was 0.11 µM.

`COC(=O)C[C@H]1[C@@H]2CC3=C(C)[C@@H](c4ccc(OC)cc4)C[C@@H]3O[C@@H]2[C@@H]2OC(=O)[C@]3(C)C=CC(=O)[C@@]1(C)[C@@H]23` [S-109]: the IC50 is 0.17 µM.

In the case of `C=C1[C@H](O[C@H]2CCC(C(C)C)=C2I)[C@@H]2OC(=O)[C@]3(C)C=CC(=O)[C@@](C)([C@@H]23)[C@H]1CC(=O)OC` [S-111], the IC50 turned out to be 0.255 µM.

In the case of `C#CCOC(=O)c1ccc(-c2occc2[C@@H]2C[C@H]3O[C@@H]4[C@@H]5OC(=O)[C@]6(C)C=CC(=O)[C@](C)([C@@H](CC(=O)OC)[C@]4(C)C3=C2C)[C@@H]56)cc1` [S-112a], the half-inhibitory concentration (IC50) worked out at 0.198 µM.

Source of the values: US20240336622A1 (The Board of Regents of The University of Texas System, priority 2021, published 2024).
